Source: patent US20240360175A1, “PEPTIDE DERIVATIVES AND RELATED USES AS OREXIN AGONISTS” (Centessa Pharmaceuticals (UK) Limited, priority 2021, published 2024)
pEC50: −log10 of the molar value. Read-outs that look alike come from different tables or passages of the source. Numbered stars: 1 amine (or outer) side, 2 acyl side, 3 side chain; on linkers, the order of the positions; unused ones are H or OH. Square brackets hold non-standard residues; d marks the D form. Peptide text beside a SMILES is read from it. * marks the point of attachment. Malonyl(2,2-Me2,histaminyl) = CC(C)(C(=O)NCCc1cnc[nH]1)C(=O)*; Gly(N-CH2CH2(4-MeOPh)) = COc1ccc(CCNCC(=O)O)cc1; hArg(Et2) = CCN=C(NCC)NCCCC[C@H](N)C(=O)O; Phe(3-Br) = N[C@@H](Cc1cccc(Br)c1)C(=O)O; X6 = O=C(CN(CCc1cccc2ccccc12)[*:1])[*:2]; Gly(NCH2CH2Ph) = O=C(O)CNCCc1ccccc1; PEG6 = NCCOCCOCCOCCOCCOCCOCCC(=O)O; Hyp = O=C(O)[C@@H]1C[C@@H](O)CN1; Hpg = N[C@H](C(=O)O)c1ccc(O)cc1; NMeN = CN[C@@H](CC(N)=O)C(=O)O; Aoc(2) = CCCCCC[C@H](N)C(=O)O; NMeL = CN[C@@H](CC(C)C)C(=O)O; Ahp(2) = CCCCC[C@H](N)C(=O)O; Phg = N[C@H](C(=O)O)c1ccccc1; Nle = CCCC[C@H](N)C(=O)O

What was measured:
[1] = target: T1, human orexin type 1 receptor (hOX1R) (Homo sapiens, UniProt O43613); experiment: Measurement of orexin type 1 receptor agonist activity (FLIPR TETRA intracellular Ca2+ fluorescence); assay type: cell-based; settings: for EC50: CHO cells expressing hOX1R, agonist activity, Ca2+ fluorescence, read-out: hOX1 pEC50 (converted)
T1 construct: expressed in transfected cells
T1 sequence (O43613 1-425): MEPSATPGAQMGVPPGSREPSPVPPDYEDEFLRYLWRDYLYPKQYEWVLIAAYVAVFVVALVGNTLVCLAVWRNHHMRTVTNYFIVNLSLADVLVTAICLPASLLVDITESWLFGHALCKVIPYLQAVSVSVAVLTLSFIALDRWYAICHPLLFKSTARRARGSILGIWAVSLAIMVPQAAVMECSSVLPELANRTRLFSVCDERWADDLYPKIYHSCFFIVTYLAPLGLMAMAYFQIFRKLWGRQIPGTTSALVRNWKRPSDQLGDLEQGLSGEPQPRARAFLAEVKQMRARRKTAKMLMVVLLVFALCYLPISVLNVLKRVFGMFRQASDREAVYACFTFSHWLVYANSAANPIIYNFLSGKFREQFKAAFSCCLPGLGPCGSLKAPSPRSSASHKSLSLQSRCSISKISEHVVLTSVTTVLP
Description: (§1) Stable cell line generation. Obtainment of cells stably expressing either human orexin type 2 or human orexin type 1 receptor: to obtain a stable cell line the Orexin receptor cDNA was inserted into pcDNA3.1(+) plasmid vector and clones identified by G418 drug resistance selection. […] A single clone for OX2R—CHO and OX1R—CHO were grown in bulk and frozen to generate a cell bank for routine screening.
(§2) Measurement of orexin type 1 receptor agonist activity. Chinese hamster ovary (CHO) cells expressing human orexin type 1 receptor (hOX1R) were seeded in each well of 384 well black clear bottom plates (BD Flacon) at 10,000 cells per well and cultured for 24 h in an Ham's F12 (Gibco) medium containing 10% fetal calf serum (Sigma Aldrich) under the conditions of 37° C., 5% CO2. After removal of the medium, 50 μL of assay buffer 1 (0.1% bovine serum albumin (Sigma Aldrich), 20 mM HEPES (Molecular Dimensions), […] probenecid (Sigma Aldrich), 1× Calcium 5 dye (Molecular Devices) in Hank's balanced salt solution (Invitrogen)) was added, and the cells were incubated for 60 min under the conditions of 37° C., 5% CO2. A test peptide was dissolved in dimethyl sulfoxide (Sigma Aldrich) to 1 mM, and then diluted with assay buffer 2 (20 mM HEPES, Hank's balanced salt solution, 0.1% bovine serum albumin). For the reaction, a test peptide solution (10 μl) was added using Fluorescent Imaging Plate Reader TETRA (FLIPR TETRA: manufactured by Molecular Devices), a fluorescence value (excitation wavelength 488 nm, measurement wavelength 570 nm) of each well was measured every one second for 2 min, and the agonist activity was determined using the area of the fluorescence value as an indicator of intracellular Ca^2+ concentration. The agonist activity of the test peptide was calculated assuming that the fluorescence value of the well added with only the dilution buffer was 0% and the fluorescence value of the well added with 10 nM human orexin A (Tocris) buffer was 100%. As used herein, Emax indicates the value at 1 μM concentration when orexin A is converted to a full agonist (maximum value of agonist activity: 100%).

[2] = target: T2, human orexin type 2 receptor (hOX2R) (Homo sapiens, UniProt O43614); experiment: Measurement of orexin type 2 receptor agonist activity (FLIPR TETRA intracellular Ca2+ fluorescence); assay type: cell-based; settings: for EC50: CHO cells expressing hOX2R, agonist activity, Ca2+ fluorescence, read-out: hOX2 pEC50 (converted)
T2 construct: expressed in transfected cells
T2 sequence (O43614 1-444): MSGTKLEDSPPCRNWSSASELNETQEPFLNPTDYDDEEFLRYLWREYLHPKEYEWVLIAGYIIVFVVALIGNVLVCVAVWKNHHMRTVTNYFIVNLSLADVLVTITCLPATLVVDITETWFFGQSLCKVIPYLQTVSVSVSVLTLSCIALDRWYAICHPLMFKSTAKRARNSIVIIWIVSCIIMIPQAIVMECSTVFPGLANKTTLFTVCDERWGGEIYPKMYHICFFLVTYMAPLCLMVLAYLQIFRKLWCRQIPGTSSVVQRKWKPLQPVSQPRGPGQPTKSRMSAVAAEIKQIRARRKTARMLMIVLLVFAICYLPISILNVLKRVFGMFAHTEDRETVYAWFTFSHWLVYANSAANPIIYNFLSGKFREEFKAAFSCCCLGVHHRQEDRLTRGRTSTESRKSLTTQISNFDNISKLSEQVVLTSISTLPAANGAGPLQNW
Description: as §1
as §2, with “type 2” for “type 1”, “receptor (hOX2R)” for “receptor (hOX1R) were”

SMILES | EC50 [1] [nM] | EC50 [2] [nM] | pEC50 [1] | pEC50 [2]
CCCCCC[C@H](NC(=O)[C@@H](NC(=O)[C@H](CC(C)C)NC(=O)[C@@H](NC(=O)CNC(=O)[C@@H](NC(=O)[C@H](C)NC(=O)[C@H](Cc1c[nH]cn1)NC(=O)[C@H](CC(N)=O)NC(=O)CN(CCc1ccccc1)C(=O)[C@@H](N)CCCCN/C(=N/CC)NCC)c1ccc(O)cc1)[C@@H](C)CC)[C@@H](C)O)C(N)=O [Peptide 20] (H-[hArg(Et2)][Gly(NCH2CH2Ph)]NHA[Hpg]GILT[Aoc(2)]-NH2) | > 10 | < 0.1 | – | –
CCCCCC[C@H](NC(=O)[C@@H](NC(=O)[C@H](CC(C)C)NC(=O)[C@@H](NC(=O)CNC(=O)[C@@H](NC(=O)[C@H](C)NC(=O)[C@H](Cc1c[nH]cn1)NC(=O)[C@H](CC(N)=O)NC(=O)CN(CCc1ccccc1)C(=O)[C@@H](N)CCCCNC(=NCC)NCC)c1ccccc1)[C@@H](C)CC)[C@@H](C)O)C(N)=O [Peptide 24] (H-[hArg(Et2)][Gly(NCH2CH2Ph)]NHA[Phg]GILT[Aoc(2)]-NH2; N-terminus assumed) | > 10 | < 0.1 | – | –
CCCCCC[C@H](NC(=O)[C@@H](NC(=O)[C@H](CC(C)C)NC(=O)[C@@H](NC(=O)CNC(=O)[C@@H](NC(=O)[C@H](C)NC(=O)[C@@H]1C[C@@H](O)CN1C(=O)[C@H](CC(N)=O)NC(=O)CN(CCc1ccccc1)C(=O)[C@@H](N)CCCCN/C(=N/CC)NCC)c1ccc(O)cc1)[C@@H](C)CC)[C@@H](C)O)C(N)=O [Peptide 7] (H-[hArg(Et2)][Gly(NCH2CH2Ph)]N[Hyp]A[Hpg]GILT[Aoc(2)]-NH2) | > 10 | < 0.1 | – | –
CC[C@H](C)[C@H](NC(=O)CNC(=O)[C@@H](NC(=O)[C@H](C)NC(=O)[C@@H]1C[C@@H](O)CN1C(=O)[C@H](CC(N)=O)NC(=O)CN(CCc1cccc2ccccc12)C(=O)[C@@H](N)CCCNC(=N)N)c1ccccc1)C(=O)N[C@@H](CC(C)C)C(=O)N[C@H](C(=O)N[C@@H](Cc1cccc(Br)c1)C(N)=O)[C@@H](C)O [Peptide 16] (H-R[X6]N[Hyp]A[Phg]GILT[Phe(3-Br)]-NH2) | 1 to 10 | < 0.1 | – | –
CCCCCC[C@H](NC(=O)[C@@H](NC(=O)[C@H](CC(C)C)NC(=O)[C@@H](NC(=O)CNC(=O)[C@@H](NC(=O)[C@H](C)NC(=O)[C@H](Cc1c[nH]cn1)NC(=O)[C@H](CC(N)=O)NC(=O)CN(CCc1ccccc1)C(=O)[C@H](CCCCNC(=NCC)NCC)NC(=O)[C@H](CCC(N)=O)NC(=O)C(C)(C)C(=O)NCCc1cnc[nH]1)c1ccccc1)[C@@H](C)CC)[C@@H](C)O)C(N)=O [Peptide 26] ({Malonyl(2,2-Me2,histaminyl)}-Q[hArg(Et2)][Gly(NCH2CH2Ph)]NHA[Phg]GILT[Aoc(2)]-NH2) | – | – | < 8.00 | > 10.00
CCCCCC[C@H](NC(=O)[C@@H](NC(=O)[C@H](CC(C)C)NC(=O)[C@@H](NC(=O)CNC(=O)[C@@H](NC(=O)[C@H](C)NC(=O)[C@@H]1C[C@@H](O)CN1C(=O)[C@H](CC(N)=O)NC(=O)CN(CCc1ccccc1)C(=O)[C@H](CCCCN/C(=N/CC)NCC)NC(=O)C(C)(C)C(=O)NCCc1cnc[nH]1)c1ccccc1)[C@@H](C)CC)[C@@H](C)O)C(N)=O [Peptide 15] ({Malonyl(2,2-Me2,histaminyl)}-[hArg(Et2)][Gly(NCH2CH2Ph)]N[Hyp]A[Phg]GILT[Aoc(2)]-NH2) | > 10 | < 0.1 | – | –
CCCCCC[C@H](NC(=O)[C@@H](NC(=O)[C@H](CC(C)C)N(C)C(=O)[C@@H](NC(=O)CNC(=O)[C@@H](NC(=O)[C@H](C)NC(=O)[C@@H]1C[C@@H](O)CN1C(=O)[C@H](CC(N)=O)N(C)C(=O)CN(CCc1ccccc1)C(=O)[C@H](CCCNC(=N)N)NC(=O)CCOCCOCCOCCOCCOCCOCCN)c1ccccc1)[C@@H](C)CC)[C@@H](C)O)C(N)=O [Peptide 31] (H-[PEG6]R[Gly(NCH2CH2Ph)][NMeN][Hyp]A[Phg]GI[NMeL]T[Aoc(2)]-NH2) | > 10 | < 0.1 | – | –
CCCCCC[C@H](NC(=O)[C@@H](NC(=O)[C@H](CC(C)C)NC(=O)[C@@H](NC(=O)CNC(=O)[C@@H](NC(=O)[C@H](C)NC(=O)[C@@H]1C[C@@H](O)CN1C(=O)[C@H](CC(N)=O)NC(=O)CN(CCc1ccccc1)C(=O)[C@@H](N)CCCCN/C(=N/CC)NCC)c1ccccc1)[C@@H](C)CC)[C@@H](C)O)C(N)=O [Peptide 4] (H-[hArg(Et2)][Gly(NCH2CH2Ph)]N[Hyp]A[Phg]GILT[Aoc(2)]-NH2) | > 10 | < 0.1 | – | –
CCCCC[C@H](NC(=O)[C@@H](NC(=O)[C@H](CC(C)C)NC(=O)[C@@H](NC(=O)CNC(=O)[C@@H](NC(=O)[C@H](C)NC(=O)[C@@H]1C[C@@H](O)CN1C(=O)[C@H](CC(N)=O)NC(=O)CN(CCc1ccccc1)C(=O)[C@H](CCCNC(=N)N)NC(=O)CCOCCOCCOCCOCCOCCOCCN)c1ccccc1)[C@@H](C)CC)[C@@H](C)O)C(N)=O [Peptide 27] (H-[PEG6]R[Gly(NCH2CH2Ph)]N[Hyp]A[Phg]GILT[Ahp(2)]-NH2) | > 10 | < 0.1 | – | –
CCCCCC[C@H](NC(=O)[C@@H](NC(=O)[C@H](CC(C)C)NC(=O)[C@@H](NC(=O)CNC(=O)[C@@H](NC(=O)[C@H](C)NC(=O)[C@H](Cc1c[nH]cn1)NC(=O)[C@H](CC(N)=O)NC(=O)CN(CCc1ccc(OC)cc1)C(=O)[C@@H](N)CCCCN/C(=N/CC)NCC)c1ccccc1)[C@@H](C)CC)[C@@H](C)O)C(N)=O [Peptide 18] (H-[hArg(Et2)][Gly(N-CH2CH2(4-MeOPh))]NHA[Phg]GILT[Aoc(2)]-NH2) | > 10 | < 0.1 | – | –
CCCCCC[C@H](NC(=O)[C@@H](NC(=O)[C@H](CC(C)C)NC(=O)[C@@H](NC(=O)CNC(=O)[C@@H](NC(=O)[C@H](C)NC(=O)[C@H](CCC(N)=O)NC(=O)[C@H](CC(N)=O)NC(=O)CN(CCc1ccccc1)C(=O)[C@@H](N)CCCCN/C(=N/CC)NCC)c1ccc(O)cc1)[C@@H](C)CC)[C@@H](C)O)C(N)=O [Peptide 23] (H-[hArg(Et2)][Gly(NCH2CH2Ph)]NQA[Hpg]GILT[Aoc(2)]-NH2) | > 10 | < 0.1 | – | –
CCCC[C@H](NC(=O)[C@@H](NC(=O)[C@H](CC(C)C)NC(=O)[C@@H](NC(=O)CNC(=O)[C@@H](NC(=O)[C@H](C)NC(=O)[C@@H]1C[C@@H](O)CN1C(=O)[C@H](CC(N)=O)NC(=O)CN(CCc1ccccc1)C(=O)[C@H](CCCNC(=N)N)NC(=O)CCOCCOCCOCCOCCOCCOCCN)c1ccccc1)[C@@H](C)CC)[C@@H](C)O)C(N)=O [Peptide 28] (H-[PEG6]R[Gly(NCH2CH2Ph)]N[Hyp]A[Phg]GILT[Nle]-NH2) | > 10 | < 0.1 | – | –
